Assay results: patent US11149047B2, “Aryl imidazoles for treatment of cancer” (Aptose Biosciences Inc., priority 2017, dated 2021)
Entries after “also recorded” stand apart in the source; their conditions may differ. Where two headings read alike, the source gives them in different places.

Key:
[1] = Stability / complex formation in culture medium and on storage; assay type: physicochemical; conditions: COMPOUND I incubated with complete tissue culture medium
Procedure: Five molar equivalents of ferrous ion as FeSO4 in a concentrated water stock was added to COMPOUND I in ethanol which produced a deep red precipitate that was subsequently dissolved in DMSO and characterized by HPLC and mass spectrometry. Fe(COMPOUND I)3 was >95% pure and stable in the complete RPMI-1640 media for at least 5 days.

[2] = system: DNA double strand breaks in CAOV3 cells; assay: Neutral comet assay; assay type: cell-based, human
Procedure: Comet assay kits were purchased from Trevigen (Gaithersburg, Md.) and neutral comet assay was performed according to the manufacturer's instructions. Images were collected with a Keyence Fluorescent Microscope (Keyence America, Itasca, Ill.) and quantitated with OpenComet software.
The structure of COMPOUND I is similar to drugs that bind to quadruplex structures in DNA which results in strand breaks; this led to the investigation of whether COMPOUND I caused damage to DNA. The parental Raji cells were treated with 0.5 μM COMPOUND I for increasing periods of time and induction of DNA damage was assessed by accumulation of the phosphorylated forms of ATM and γH2AX measured by Western blot analysis. […] Raji cells have very small nuclei making it difficult to quantify the formation of γH2AX foci, so the human ovarian carcinoma cell line CAOV3 was used for this purpose. […] Evidence of DNA damage was further strengthened by the results of the neutral comet assay which mainly detects DNA double strand breaks (FIG. 2D).

[3] = system: PEO4 and PEO1 ovarian cancer cell lines; assay: Sensitivity of BRCA2-proficient and -deficient cells; assay type: cell-based; conditions: FIG. 3D
Procedure: Cells were plated and treated with the indicated drugs in 96-well plates for 5 days. Cell viability was measured using CellTiter 96 AQueous one solution (MTS) cell proliferation assay purchased from Promega, and IC50 values were calculated using GraphPad Prism 6 Software.
The finding that COMPOUND I produced DNA damage led to the investigation of whether cells deficient in homologous recombination were hypersensitive to this drug. The hypothesis that there would be synthetic lethality between COMPOUND I and BRCA1 deficiency using isogenic pairs of BRCA1-proficient and -deficient human cell lines was tested. […] The conclusion that BRCA1-deficient cells are hypersensitive to COMPOUND I was further supported by the results obtained in MCF7 E7 cells in which BRCA1 expression is stably knocked down by the expression of an shRNAi. […] Whether BRCA2-deficient cells are more sensitive to COMPOUND I was tested using the BRCA2-proficient and BRCA2-deficient ovarian cancer cell lines, PEO4 and PEO1, respectively. PEO1 is BRCA2-deficient and sensitive to cisplatin and a poly(ADP-ribose) polymerase inhibitor AG14361. PEO4 was derived from ascites at the time of relapse with cisplatin resistance and contains a secondary mutation that restores BRCA2 function. […] Thus, loss of either BRCA1 or BRCA2 function renders malignant cells hypersensitive to COMPOUND I.

[4] = system: AML cell lines and various forms of lymphoma cell lines; assay: Cytotoxicity study (MTS), cell line panel; assay type: cell-based; conditions: inhibition of proliferation; read-out: IC50 values, range over cell lines
Procedure: Cells were plated and treated with vehicle DMSO or COMPOUND I (10 concentrations) in 96-well plates for 5 days at 37° C. and 5% CO2. Cell viability was measured using CellTiter 96 AQueous one solution (MTS) cell proliferation assay (Promega, catalog #G3581), and IC50 values were calculated using GraphPad Prism 7 software.
Previous studies reported upregulation of KLF4 and CDKN1A expression as a potential mechanism of APT0-COMPOUND I activity in tumors. […] The upregulation of CDKN1A mRNA increased with duration of exposure in all AML cell lines tested (FIGS. 15D and 15E). At later time points, CDKN1A expression began to decrease, likely due to increasing cell death. Induction of CDKN1A expression is typically associated with a subsequent G0-G1, cell-cycle arrest, which was observed following COMPOUND I treatment of solid tumor lines.

[5] = system: G4 sequences (telomere, MYC, KIT, rRNA oligos); assay: Modified FRET assay, melting of G-quadruplex oligos; assay type: binding, human; conditions: FIG. 13C; COMPOUND I data at 6-hour incubation
Procedure: (§1) FRET assay and data analysis was performed as described previously and modified by using dual labeled (5′ FAM-3′ BHQ1) single-stranded oligos. Melting temperature of each oligo was assessed in the presence of vehicle DMSO or escalating concentrations of COMPOUND I, Fe(COMPOUND I)3, CX-5461, or TMPyP4 using a Roche LightCycler 96 [at 37° C. for 300 seconds followed by temperature increased in […] intervals up to 91° C. (25 steps) with 300-second total incubation time at each temperature]. Drug and oligo reaction mixes were analyzed immediately or incubated for 6 hours at room temperature and then analyzed. […] COMPOUND I data are presented for 6-hour time point.
The ability of COMPOUND I (parental monomeric form of the drug) and Fe(COMPOUND I)3 to bind and stabilize G4 sequences using a modified FRET assay was evaluated (FIGS. 21 and 22). TMPyP4, a well-known G4 ligand, and CX-5461, a clinical stage molecule recently reported to have G4-binding properties, were utilized as controls to assess the specificity of COMPOUND I and Fe(COMPOUND I)3 for G4-stabilizing activity.

ds-DNA = assay: Modified FRET assay with ds-DNA hairpin oligo; assay type: binding
Procedure: as §1
To assess selectivity for G4 structures over nonspecific interactions with ds-DNA, the FRET assay was repeated with a self-complimentary oligo that forms a ds-DNA hairpin in solution. […] The lack of effect on 45 s rRNA may reflect differences in availability of COMPOUND I and/or Fe(COMPOUND I)3 into the rRNA-rich nucleolar region of the nucleus. Nevertheless, COMPOUND I clearly can stabilize G4 structures, which provides an explanation for the inhibition of the expression of MYC and other genes. […]

[6] = patients with solid tumors, up to maximum tolerated dose; cited from earlier work
[7] = animals; cited from earlier work

Cc1[nH]c2ccc(F)cc2c1-c1nc2c3cccnc3c3ncccc3c2[nH]1 [COMPOUND I, 2-(5-fluoro-2-methyl-1H-indol-3-yl)-1H-imidazo[4,5-f][1,10]phenanthroline]
extracellular Fe(COMPOUND I)3 formation [1]: no extracellular Fe(COMPOUND I)3 was detected | tail DNA vs DMSO ([2]; 0.5 μM, 6 h): no increase in tail DNA | DNA in comet tails ([2]; 6 h treatment then 18 h drug free media (pulse-chase)): significantly more DNA in the comet tails | effect of restoration of BRCA2 function (PEO4 vs PEO1) [3]: increased resistance | IC50 [4]: 57 to 1750 nM | stabilization of G4 sequences (ΔT1/2) [5]: time-dependent stabilization of G4 motifs, but it demonstrated the greatest propensity for stabilizing the MYC G4 sequences | interaction with dsDNA (ds-DNA): did not interact with dsDNA | myelosuppression [6]: did not produce myelosuppression; also recorded: does not produce myelosuppression | myelosuppression [7]: did not produce myelosuppression
